Laboratory results from ChEMBL document CHEMBL5143555, “Potentiating the intracellular killing of Staphylococcus aureus by dihydroquinazoline analogues as NorA efflux pump inhibitor” (Bioorg Med Chem, 2022).
In brackets after ≈: the same amount, converted by molar mass. Activity calls are given as the source filed them. The calls are words filed in the database; no cut-off is given here.

Columns and labels:
Staphylococcus aureus [1] = experiment: Antibacterial activity against Staphylococcus aureus 1199B measured after 24 hrs by Muller Hinton broth based MTT assay; type: functional
[2] = biological target: T1, Quinolone resistance protein NorA (Staphylococcus aureus) (UniProt P0A0J7); experiment: Inhibition of NorA in Staphylococcus aureus 1199B assessed as potentiation of norfloxacin-induced antibacterial activity by measuring Norfloxacin MIC at sub MIC
T1 sequence (whole entry): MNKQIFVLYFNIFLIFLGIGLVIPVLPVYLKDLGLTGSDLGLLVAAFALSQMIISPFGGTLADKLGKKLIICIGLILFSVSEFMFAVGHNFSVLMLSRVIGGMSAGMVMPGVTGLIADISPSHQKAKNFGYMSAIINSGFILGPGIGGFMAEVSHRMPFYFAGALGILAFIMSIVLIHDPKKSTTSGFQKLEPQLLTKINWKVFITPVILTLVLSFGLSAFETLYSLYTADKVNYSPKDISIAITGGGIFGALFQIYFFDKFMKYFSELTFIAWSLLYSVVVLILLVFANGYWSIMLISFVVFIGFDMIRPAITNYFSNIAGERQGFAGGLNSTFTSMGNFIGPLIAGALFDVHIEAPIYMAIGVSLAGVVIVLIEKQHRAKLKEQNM

[3] = biological target: T1, Quinolone resistance protein NorA (Staphylococcus aureus); experiment: Inhibition of NorA in Staphylococcus aureus 1199B assessed as potentiation of norfloxacin-induced antibacterial activity by measuring Norfloxacin MIC at sub MIC relative to norfloxacin MIC alone
[4] = biological target: T1, Quinolone resistance protein NorA (Staphylococcus aureus); experiment: Inhibition of NorA in Staphylococcus aureus 1199B assessed as potentiation of ethidium bromide-induced antibacterial activity by measuring ethidium bromide MIC at sub MIC
[5] = biological target: T1, Quinolone resistance protein NorA (Staphylococcus aureus); experiment: Inhibition of NorA in Staphylococcus aureus 1199B assessed as potentiation of ethidium bromide-induced antibacterial activity by measuring ethidium bromide MIC at sub MIC relative to ethidium bromide MIC alone
[6] = biological target: T1, Quinolone resistance protein NorA (Staphylococcus aureus); experiment: Inhibition of NorA in Staphylococcus aureus 1199B assessed as accumulation of norfloxacin at 50 ug/ml by measuring fluorescence intensity measured at 5 mins interval for 40 mins by fluorescence spectrophotometry; settings: dose 50.0 µg/ml
[7] = biological target: T1, Quinolone resistance protein NorA (Staphylococcus aureus); experiment: Inhibition of NorA in Staphylococcus aureus 1199B assessed as accumulation of ethidium bromide at 50 ug/ml by measuring fluorescence intensity measured at 5 mins interval for 40 mins by fluorescence spectrophotometry; settings: dose 50.0 µg/ml
[8] = biological target: T1, Quinolone resistance protein NorA (Staphylococcus aureus); experiment: Inhibition of NorA in Staphylococcus aureus 1199B assessed as potentiation of norfloxacin-induced antibacterial activity by measuring fractional inhibitory concentration
[9] = biological target: T1, Quinolone resistance protein NorA (Staphylococcus aureus); experiment: Inhibition of NorA in Staphylococcus aureus 1199B assessed as potentiation of ethidium bromide-induced antibacterial activity by measuring fractional inhibitory concentration
[10] = biological target: T1, Quinolone resistance protein NorA (Staphylococcus aureus); experiment: Inhibition of NorA in Staphylococcus aureus 1199B assessed as accumulation of norfloxacin at 2.5 ug/ml by measuring fluorescence intensity measured at 5 mins interval for 40 mins by fluorescence spectrophotometry; settings: dose 2.5 µg/ml
[11] = biological target: T1, Quinolone resistance protein NorA (Staphylococcus aureus); experiment: Inhibition of NorA in Staphylococcus aureus 1199B assessed as accumulation of ethidium bromide at 2.5 ug/ml by measuring fluorescence intensity measured at 5 mins interval for 40 mins by fluorescence spectrophotometry; settings: dose 2.5 µg/ml
Staphylococcus aureus [12] = experiment: Antibacterial activity against Staphylococcus aureus 1199 measured after 24 hrs by Muller Hinton broth based MTT assay; type: functional
Staphylococcus aureus [13] = experiment: Antibacterial activity against Staphylococcus aureus K1758 measured after 24 hrs by Muller Hinton broth based MTT assay; type: functional
Staphylococcus aureus [14] = experiment: Bactericidal activity against Staphylococcus aureus 1199B at 50 ug/mL by time-kill kinetics assay; type: functional, organism-based; settings: dose 50.0 µg/ml
Staphylococcus aureus [15] = experiment: Bactericidal activity against Staphylococcus aureus 1199B assessed as bacterial count at 3.1 ug/mL measured after 24 hrs by time-kill kinetics assay; type: functional; settings: dose 3.1 µg/ml
Staphylococcus aureus [16] = experiment: Up regulation of NorA gene expression in Staphylococcus aureus 1199B at 1.55 ug/ml measured after 2 hrs by qRT-PCR analysis relative to control; type: functional; settings: dose 1.55 µg/ml
[17] = biological target: T1, Quinolone resistance protein NorA (Staphylococcus aureus); experiment: Inhibition of NorA in Staphylococcus aureus 1199B assessed as accumulation of norfloxacin at 3.9 ug/ml by measuring fluorescence intensity measured at 5 mins interval for 40 mins by fluorescence spectrophotometry; settings: dose 3.9 µg/ml
[18] = biological target: T1, Quinolone resistance protein NorA (Staphylococcus aureus); experiment: Inhibition of NorA in Staphylococcus aureus 1199B assessed as potentiation of 3.1 ug/mL norfloxacin-induced bactericidal activity by measuring log reduction in bacterial count at 7.8 ug/mL measured after 8 hrs by time-kill kinetics assay; settings: dose 7.8 µg/ml
[19] = biological target: T1, Quinolone resistance protein NorA (Staphylococcus aureus); experiment: Inhibition of NorA in Staphylococcus aureus 1199B assessed as potentiation of ethidium bromide-induced bactericidal activity at 15.6 ug/ml measured within 8 hrs by time-kill kinetics assay; settings: dose 15.6 µg/ml
[20] = Cytotoxicity against kidney epithelial cells (unknown origin) assessed as cell viability at 50 ug/mL measured after 24 hrs by alamar blue assay relative to control; type: toxicity, cell-based, Fetal kidney cell; settings: at 50 µg/mL, read-out: Activity
[21] = biological target: T1, Quinolone resistance protein NorA (Staphylococcus aureus); experiment: Inhibition of NorA in Staphylococcus aureus 1199B assessed as potentiation of norfloxacin-induced morphological changes by measuring appearance of rough and dented cell at sub MIC by field emission scanning electron microscopy
[22] = biological target: T1, Quinolone resistance protein NorA (Staphylococcus aureus); experiment: Inhibition of NorA in Staphylococcus aureus 1199B assessed as accumulation of ethidium bromide at 3.9 ug/ml by measuring fluorescence intensity measured at 5 mins interval for 40 mins by fluorescence spectrophotometry; settings: dose 3.9 µg/ml
Staphylococcus aureus [23] = experiment: Down regulation of NorA gene expression in Staphylococcus aureus 1199B at 3.9 ug/ml measured after 2 hrs by qRT-PCR analysis; type: functional; settings: dose 3.9 µg/ml
Staphylococcus aureus [24] = experiment: Down regulation of NorA gene expression in Staphylococcus aureus 1199B at 3.1 ug/ml measured after 2 hrs by qRT-PCR analysis relative to control; type: functional; settings: dose 3.1 µg/ml
Staphylococcus aureus [25] = experiment: Down regulation of NorA gene expression in Staphylococcus aureus 1199B at 3.1 ug/ml measured after 2 hrs in presence of norfloxacin by qRT-PCR analysis relative to norfloxacin; type: functional; settings: dose 3.1 µg/ml
[26] = biological target: T1, Quinolone resistance protein NorA (Staphylococcus aureus); experiment: Inhibition of NorA in Staphylococcus aureus 1199B infected human THP-1 cells assessed as potentiation of norfloxacin-induced bactericidal activity by measuring reduction in bacterial count at modulatory concentration measured after 24 hrs; type: cell-based
[27] = biological target: T1, Quinolone resistance protein NorA (Staphylococcus aureus); experiment: Inhibition of NorA in Staphylococcus aureus 1199B infected human THP-1 cells assessed as potentiation of norfloxacin-induced bactericidal activity by measuring reduction in bacterial count at modulatory concentration measured after 24 hrs relative to control; type: cell-based
[28] = biological target: T1, Quinolone resistance protein NorA (Staphylococcus aureus); experiment: Inhibition of NorA in Staphylococcus aureus 1199B infected human THP-1 cells assessed as potentiation of norfloxacin-induced bactericidal activity by measuring reduction in intracellular invasion at modulatory concentration measured after 24 hrs; type: cell-based
[29] = biological target: T1, Quinolone resistance protein NorA (Staphylococcus aureus); experiment: Inhibition of NorA in Staphylococcus aureus 1199B infected human THP-1 cells assessed as potentiation of norfloxacin-induced bactericidal activity by measuring reduction in intracellular proliferation at modulatory concentration measured after 24 hrs; type: cell-based
[30] = biological target: T1, Quinolone resistance protein NorA (Staphylococcus aureus); experiment: Inhibition of NorA in Staphylococcus aureus 1199B infected human THP-1 cells assessed as potentiation of 6.2 ug/ml norfloxacin-induced bactericidal activity by measuring log reduction in bacterial count at 15.6 ug/ml measured after 24 hrs relative to control; type: cell-based; settings: dose 15.6 µg/ml
[31] = biological target: T1, Quinolone resistance protein NorA (Staphylococcus aureus); experiment: Inhibition of NorA in Staphylococcus aureus 1199B infected human THP-1 cells assessed as potentiation of norfloxacin-induced bactericidal activity by measuring log reduction in bacterial count measured after 24 hrs relative to vancomycin; type: cell-based

SMILES	MIC (Staphylococcus aureus [1]) [µg/mL]	MIC [2] [µg/mL]	fold change (FC) [3]	MIC [4] [µg/mL]	fold change (FC) [5]	fractional inhibitory concentration index (FICI) [8]	fractional inhibitory concentration index (FICI) [9]	MIC (Staphylococcus aureus [12]) [µg/mL]	MIC (Staphylococcus aureus [13]) [µg/mL]	also measured
COc1ccc(CCN(C)CCCC(C#N)(c2ccc(OC)c(OC)c2)C(C)C)cc1OC (stereo unspecified) [VERAPAMIL]	400 (≈ 880 µM)	12.5	4	6.2	8	–	–	–	–	Flu intensity [6]: 1590; Flu intensity [7]: 189
N#CC(C#N)=NNc1cccc(Cl)c1 [CARBONYL CYANIDE M-CHLOROPHENYLHYDRAZONE]	20 (≈ 97.7 µM)	6.2	8	3.1	16	0.625	0.562	–	–	Flu intensity [10]: 695; Flu intensity [11]: 149
CCn1cc(C(=O)O)c(=O)c2cc(F)c(N3CCNCC3)cc21 [NORFLOXACIN]	50 (≈ 157 µM)	–	–	–	–	–	–	1.56 (≈ 4.89 µM)	0.2 (≈ 0.626 µM)	inhibition (Staphylococcus aureus [14]): Active; Activity (Staphylococcus aureus [15]): 6 log10CFU/ml; fold change (FC) (Staphylococcus aureus [16]): 0.076
C=CCOc1ccc(C2N=C(c3ccccc3)c3cc(Cl)ccc3N2C)cc1 (stereo unspecified)	500 (≈ 1290 µM)	6.2	8	12.5	4	0.141	0.281	125 (≈ 321 µM)	31.2 (≈ 80.2 µM)	Flu intensity [17]: 15400; Activity [18]: > 3 log10CFU/ml; inhibition [19]: Active; viability at 24 h, 50 ug/mL [20]: 94.8%; inhibition [21]: Active; Flu intensity [22]: 173; Activity (Staphylococcus aureus [23]): Active; fold change (FC) (Staphylococcus aureus [24]): 8; fold change (FC) (Staphylococcus aureus [25]): 9; Activity [26]: 4.25 log10CFU/ml; fold change (FC) [27]: 4; inhibition [28]: Active; inhibition [29]: Active; FC [30]: 5; FC [31]: 3
